The values below come from patent publication US5068354A, “Epoxysuccinic acid derivatives” (Taisho Pharmaceutical Co., Ltd., priority 1989, dated 1991).

Holding throughout (format): biochemical
One assay deals with cathepsin B. In words: Inhibitory Activity against Cathepsin B. Particulars: pH 6.0, preincubated 40° C. 10 min, incubation 10 min. The protocol: The activity was measured according to the method of A.J. Barrett et al [Biochem. J., vol.
To each of 0.95 ml of the reaction solutions containing 2.5 mM 2-mercaptoethanol, 1 mM disodium ethylenediaminetetraacetate, 0.1 M sodium potassium phosphate buffer (pH 6.0), 0.1% brij-35 (Nacalai Tesque Inc.), 1% dimethyl sulfoxide and different concentrations of the test drug was added 25 μl of 200 nM cathepsin B solution (Sigma Chemical Co.), and the mixture was preincubated for 40° C. for 10 minutes, after which 25 μl of 200 µM benzyloxycarbonyl L-phenylaranyl-L-arginine 4-methylcoumaryl-7-amide (Peptide Institute Inc.) was added for starting the reaction. After incubation at 40° C. for 10 minutes, the reaction was stopped by addition of 1 ml of 100 mM sodium chloroacetate in 100 mM sodium acetate (pH 4.3) The fluorescence of the liberated 7-amino-4-methylcoumarine was determined using a Shimazu fluorimeter RP-5000 with excitation at 380 n and emission measured at 440 nm. […] Chosen as a comparative drug is N-(L-3-trans-carboxy-oxirane-2-carbonyl)-L-isoleucyl-L-proline methyl ester which is included within the structural formula of the above U.K. Patent and is the closest compound to the compound of formula I in the structure.

The next assay concerns the target T1, CANP (μCANP, Calpain I) (Homo sapiens, UniProt P07384).
T1 construct: purchased Nacalai Tesque Inc
T1 sequence (P07384 1-714): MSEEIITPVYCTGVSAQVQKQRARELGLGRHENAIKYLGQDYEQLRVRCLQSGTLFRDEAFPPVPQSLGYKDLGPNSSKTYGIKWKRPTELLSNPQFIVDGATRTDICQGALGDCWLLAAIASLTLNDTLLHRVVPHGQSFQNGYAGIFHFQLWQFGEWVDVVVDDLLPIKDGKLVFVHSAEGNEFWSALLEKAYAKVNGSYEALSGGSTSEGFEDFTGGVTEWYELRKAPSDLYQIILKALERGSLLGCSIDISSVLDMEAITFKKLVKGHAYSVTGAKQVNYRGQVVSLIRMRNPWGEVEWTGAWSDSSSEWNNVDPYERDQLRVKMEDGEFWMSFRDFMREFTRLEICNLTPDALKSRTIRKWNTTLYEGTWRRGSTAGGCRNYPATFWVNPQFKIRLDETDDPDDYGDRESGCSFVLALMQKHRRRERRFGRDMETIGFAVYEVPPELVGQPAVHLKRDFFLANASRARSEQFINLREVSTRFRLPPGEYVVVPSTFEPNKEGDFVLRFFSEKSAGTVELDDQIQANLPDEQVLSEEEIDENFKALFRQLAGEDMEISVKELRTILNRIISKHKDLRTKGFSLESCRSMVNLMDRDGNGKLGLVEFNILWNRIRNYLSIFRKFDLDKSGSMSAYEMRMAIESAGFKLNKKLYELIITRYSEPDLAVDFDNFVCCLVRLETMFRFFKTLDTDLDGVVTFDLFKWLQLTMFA
T1 sequence (P04632 1-268 partner): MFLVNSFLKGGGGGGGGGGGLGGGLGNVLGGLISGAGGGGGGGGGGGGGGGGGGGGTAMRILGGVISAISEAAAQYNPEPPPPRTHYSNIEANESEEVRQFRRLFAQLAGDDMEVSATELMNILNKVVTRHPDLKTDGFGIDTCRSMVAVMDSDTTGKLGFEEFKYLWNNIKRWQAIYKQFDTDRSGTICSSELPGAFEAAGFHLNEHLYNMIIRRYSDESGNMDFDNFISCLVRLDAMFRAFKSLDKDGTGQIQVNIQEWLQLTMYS
In words: Inhibitory Activity against CANP. Particulars: alkali-denatured casein, pH 7.5, preincubated 30° C. 5 min, incubation 20 min, read-out: concentration of the test drug required for 50% inhibition (IC50). The protocol:
Test example 1 [Inhibitory Activity against CANP]
The activity was measured according to the method of S. Ishiura et al [J. Biochem., vol. 84, page 225 (1978)].
Each of 0.45 ml of the reaction solutions containing 25 mM 2-mercaptoethanol, 5 mM calcium chloride, 0.1 M sodium glycerophosphate-HCl (pH 7.5), 0.24% alkali-denatured casein, 1% dimethyl sulfoxide and various concentrations of the test drug was preincubated at 30° C. for 5 minutes, and 5 μg of μCANP (50 μg) (Calpain I, Nacalai Tesque Inc.) was added or starting the reaction. After incubation at 30° C. for 20 minutes, the reaction was stopped by addition of 0.5 ml of 10% trichloroacetic acid. After allowing to stand at room temperature for 60 minutes, the mixture was centrifuged at 3000×g for 5 minutes, and the absorbance at 280 nm of the supernatant was determined. The remaining activity was obtained by reducing the blank value which was obtained in a similar manner to the above but adding 10% trichloroacetic acid prior to addition of μCANP from the above value. The concentration of the test drug required for 50% inhibition (IC50) was calculated from the inhibition rate obtained using the value which was measured in a similar manner to the above but without the test drug. The IC50 value of the compound obtained in Example 5 was more than 200,000 nM.

A further assay has as its target T2, papain (Carica papaya, UniProt P00784).
T2 construct: purchased Sigma Chemical Co
T2 sequence (P00784 134-345): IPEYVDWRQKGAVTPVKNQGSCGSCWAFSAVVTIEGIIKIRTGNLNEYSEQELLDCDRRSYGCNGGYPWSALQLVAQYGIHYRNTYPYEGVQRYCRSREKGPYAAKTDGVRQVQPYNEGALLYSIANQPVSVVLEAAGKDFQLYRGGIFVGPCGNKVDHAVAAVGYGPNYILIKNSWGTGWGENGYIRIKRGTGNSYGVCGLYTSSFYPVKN
Nature of the assay: Inhibitory Activity against Papain. Particulars: pH 6.8, preincubated 40° C. 3 min, incubation 10 min, read-out: concentration of the test drug required for 50% inhibition (IC50). The protocol:
Test example 2 [Inhibitory Activity against Papain]
The activity was measured according to the method of A.J. Barrett et al [Biochem. J., vol. 201, page 189, (1982)].
To each of 0.95 ml of the reaction solutions containing 2.5 mM 2-mercaptoethanol, 1 mM disodium ethylenediaminetetraacetate, 0.1 M sodium potassium phosphate (pH 6.8), 0.1% brij-35 (Nacalai Tesque Inc.), 1% dimethyl sulfoxide and the various concentrations of the test drug was added 25 μl of 400 nM papain solution (Sigma Chemical Co.), and the mixture was preincubated for 40° C. for 3 minutes, after which 25 μof 200 μM benzyloxycarbonyl-L-phenylaranyl-L-arginine 4-methyl-coumaryl-7-amide (Peptide Institute Inc.) was added for starting the reaction. After incubation at 40° C. for 10 minutes, the reaction was stopped by addition of 1 ml of 100 mM sodium chloroacetate in 100 mM sodium acetate (pH 4.3). The fluorescence of the liberated 7-amino-4-methylcoumarine was determined using a Shimazu fluorimeter RF-5000 with excitation at 380 nm and emission measured at 440 nm. The concentration of the test drug required for 50% inhibition (IC50) was calculated from the inhibiting rate calculated using the value which was measured in a similar manner to the above but without the test drug.

In the assay on cathepsin B, `CC[C@H](C)[C@H](NC(=O)[C@H]1O[C@@H]1C(=O)O)C(=O)N1CCC[C@H]1C(=O)OC` [Reference Example, N-(L-3-trans-carboxyoxirane-2-carbonyl)-L-isoleucyl-L-proline methyl ester, reference compound] yielded an IC50 of 8800 nM.

Take `CCOC(=O)[C@H]1O[C@@H]1C(=O)N[C@H](C(=O)N1CCC[C@H]1C(=O)O)[C@@H](C)CC` [Example 5, N-(L-3-trans-ethoxycarbonyl-oxirane-2-carbonyl)-L-isoleucyl-L-proline]: the IC50 on CANP (μCANP, Calpain I) is > 200 µM; at papain it was 16 µM; in the assay on cathepsin B, 120 nM.
